In patent US8044103B2, “Cyclic dipeptides and azetidinone compounds and their use in treating CNS injury and neurodegenerative disorders” (Georgetown University, priority 1998, dated 2011):
One block for each molecule: values may come before it.

How the values were obtained:
[1] = in vivo; cited from earlier work
[2] = system: traumatic spinal cord injury in cats; conditions: cited from earlier work
[3] = system: cats subjected to brainstem compression; conditions: cited from earlier work
[4] = system: head impact trauma in mice; conditions: cited from earlier work
[5] = system: traumatic spinal cord injury; conditions: in vivo; cited from earlier work
[6] = system: rats following moderate fluid percussion injury; experiment: Mortality after moderate fluid percussion injury; type: in vivo, Male Sprague-Dawley rats; conditions: 1 mg/kg i.v. 30 min following moderate fluid percussion injury; died before the end of the study; saline 21.4% and 37.5%
Procedure: Rats were anesthetized with sodium pentobarbital (70 mg/kg i.p.), intubated, and implanted with femoral venous and arterial catheters. Brain temperature was assessed indirectly through a thermister in the temporalis muscle. Body temperature was maintained through a feedback-controlled heating blanket. Blood pressure was continuously monitored, and arterial blood gases analyzed periodically. After the animal was placed in a stereotaxic frame, the scalp and temporal muscle were reflected, and a small craniotomy (5 mm) located midway between the lambda and bregma sutures over the left parietal cortex allowed insertion of a Leur-Loc that is cemented in place. The fluid-percussion head injury device, manufactured by the Medical College of Virginia, consists of a plexiglass cylindrical reservoir filled with isotonic saline; one end includes a transducer that is mounted and connected to a 5 mm tube that attaches through a male Leur-Loc fitting to the female Leur-Loc cemented at the time of surgery. A pendulum strikes a piston at the opposite end of the device, producing a pressure pulse of approximately 22 msec duration, leading to deformation of underlying brain. The degree of injury is related to the pressure pulse, expressed in atmospheres (atm): 2.6 atm in our laboratory produces a moderate injury with regard to neurological and histological deficit. Sham (control) animals undergo anesthesia and surgery without fluid percussion brain injury. […]
(§1) Continuous variables compared across groups were examined using an analysis of variance (ANOVA) followed by Bonferroni correction (rightin reflex). Continuous variables subjected to repeated measurements over a period of time (cardiovascular and core temperature measurements) were analyzed using a repeated measurements ANOVA followed by Tukey's pairwise comparison at each time point. Ordinal measurements (composite neurological scores) were evaluated using the non-parametric Kruskal-Wallis ANOVA with individual, non-parametric Mann-Whitney U-tests. […]

[7] = system: mice following controlled cortical impact injury (CCI); experiment: Beam walking task after controlled cortical impact injury (chronic neurological recovery); type: in vivo, Male C57Bl/6 mice; conditions: 1 mg/kg following CCI injury; small group size (n=6)
Procedure: Male C57Bl/6 mice (20-25 g) were obtained from Taconic Farms (Germantown, N.Y.) and housed in an area directly adjoining surgical and behavioral rooms for at least 1 week prior to any procedures. All mice were maintained at a constant temperature (22±2° C.) and a 12 hr light/dark cycle, with lights on at 6 am and all behavioral testing performed during the light cycle. Food and water were available ad libitumn.
The injury device consisted of a microprocessor-controlled pneumatic impactor with a 3.5 mm diameter tip. The impactor is vertically mounted on a mill table (Sherline, USA) which allows for precise adjustment in the vertical plane above the mouse head, which itself is secured to a stereotaxic apparatus (David Kopf Instruments, CA) attached to the instrument. The core rod of a linear voltage differential transducer (LVDT, Serotec, USA) is attached to the lower end of the impactor to allow measurement of velocities between 3.0 and 9.0 m/s. Velocity of the impactor is controlled by fine tuning both positive and negative (back) air pressures. An oscilloscope (Tektronix, USA) records the time/displacement curve produced by the downward force on the LVDT, allowing precise measurement of the impactor velocity.
Surgical anesthesia was induced and maintained with 4% and 2% isoflurane respectively, using a flow rate of 1.0-1.5 l oxygen per minute. Depth of anesthesia was assessed by monitoring respiration rate and palpebral and pedal-withdrawal reflexes. The animal was then placed onto a heated pad and core body temperature was monitored and maintained at 38+/−0.2° C. The head was mounted in a stereotaxic frame and the surgical site clipped and prepared with a series of three Nolvasan scrubs followed by sterile saline rinses. A 10 mm mid-line incision was made over the skull, the skin and fascia reflected, and a 4 mm craniotomy made on the central aspect of the left parietal bone with a tissue punch (Roboz, USA). Great care was taken with the removal of the parietal bone to avoid injury to the underlying dura mater which was continuously bathed in sterile normal saline warmed to 37.5° C. The impounder tip of the pneumatic injury device was cleaned with a pad, soaked in absolute alcohol, positioned to the surface of the exposed dura and automatically withdrawn the 44 mm stroke distance. Following injury at a moderate (6.0 m/s velocity, 1 mm tissue deformation depth) level, the incision was closed with interrupted 6-0 silk sutures, anaesthesia was discontinued and the mouse was placed into a heated cage to maintain normothermia for 45 minutes post-injury. All animals were monitored carefully for at least 4 hours post-surgery and then daily. To minimize variation between animals due to anaesthesia during acute neurological testing, 20 minutes was allowed for surgery and 5 minutes for suturing for each animal.
Conscious mice were placed in a mouse restrainer and injected via the lateral tail vein with either normal saline (injured controls; n=6), 1 mg/kg Compound 2a (n=8), Compound 10b (n=6), Compound 11b (n=6) or Compound 14c (n=6) at 30 minutes following controlled cortical impact injury (CCI). The values for n represents the number of mice in the particular treatment group. The investigator was blinded to drug treatment both at the time of surgery and for neurological and behavioral scoring.
Chronic neurological recovery was evaluated for all animals using a beam walking task, a method which is particularly good at discriminating fine motor coordination differences between injured and sham-operated animals. The device consisted of a narrow wooden beam 6 mm wide and 120 mm in length which was suspended 300 mm above a 60 mm-thick foam rubber pad. The mouse was placed on one end of the beam and the number of footfaults for the right hindlimb recorded over 50 steps counted in either direction on the beam. A basal level of competence at this task was established before surgery with an acceptance level of <10 faults per 50 steps. […]

[8] = system: lightly anesthetized rats; experiment: Core body temperature in lightly anesthetized uninjured rats (analeptic study); type: in vivo; conditions: 1 mg/kg i.v.; over 60 min following anesthesia; p<0.001 vs all other groups at 20-60 min
Procedure: (§2) Additional groups of uninjured rats were tested for autonomic and analeptic responses immediately prior to and up to 60 min. following drug administration. For the analeptic study, rats were first anesthetized with 40 mg/kg i.p. sodium pentabarbitone and placed onto an unheated pad on the laboratory bechtop at room temperature (22±2° C.). A thermister probe was placed in the rectum to measure core body temperature. After a 10 min. period, rats were administered vehicle or drug as described below via the tail vein. Time to recovery of the righting-reflex was subsequently determined while temperature was recorded at 5 min. intervals for all animals. […]
as §1

[9] = system: lightly anesthetized rats; experiment: Latency to recover righting reflex after light anesthesia (analeptic study); type: in vivo; conditions: i.v., doses of 1 mg/kg and 10 mg/kg (FIG. 11); after 40 mg/kg i.p. sodium pentobarbitone
Procedure: as §2, §1

[10] = system: fully conscious and unrestrained rats; experiment: Mean arterial blood pressure in conscious unrestrained rats (autonomic study); type: in vivo; conditions: 1 mg/kg i.v., over the duration of testing
Source text: To assess autonomic responses to the novel TRH analogues, a separate group of rats were anesthetized with 4% isoflurane (1.5 L/min). Catheters were then placed into the right artoid artery and right jugular vein and exteriorized at the back of the neck. Rats were separated one per cage and allowed to recover from anesthesia. The exteriorized catheters were suspended above the rat to prevent biting. Mean […] blood pressure (MAP) was continuously recorded via a transducer connected directly to the arterial catheter for the duration of the study. At 1 h following catheter placement, rats were administered vehicle or drug via the catheter in the jugular vein as described below. […]
as §1

[11] = system: central facilitating activity; conditions: cited from earlier work
[12] = system: rats following trauma; conditions: cited from earlier work

SMILES: NC(=O)[C@@H]1CCCN1C(=O)[C@H](Cc1cnc[nH]1)NC(=O)[C@@H]1CCC(=O)N1 [TRH, L-pyroglutamyl-L-histidyl-L-prolinamide]
- plasma half-life [1]: 4 to 5 min
- neurological deficits after traumatic spinal cord injury [2]: reduces neurological deficits
- electrical activity and neurological recovery after brainstem compression [3]: improve electrical activity and neurological recovery
- postconcussional behavioral suppression following head impact trauma [4]: shorten postconcussional behavioral suppression

SMILES: NC(=O)[C@@H]1CCCN1C(=O)[C@H](Cc1cnc[nH]1)NC(=O)c1cc(=O)[nH]c(=O)[nH]1 [CG3509]
- outcome following traumatic spinal cord injury [5]: improve outcome

SMILES: CC(C)(C)SC[C@@H]1NC(=O)[C@@H]2CCCN2C1=O [Compound 4a, Cyclo(t-Butyl-Cys-Pro)]
- mortality rate [6]: 0%

SMILES: NC(=O)[C@@H]1CCCN1C(=O)C1(NC(=O)[C@@H]2CC(=O)N2)CC1 [Compound 10b, N^1-[1-[N—[(S)-4-Oxo-Azetidine-2-Carbonyl]Amino]Cyclopropane-Carbonyl]Prolinamide]
- performance deficits in the beamwalking task compared with saline vehicle [7]: attenuated

SMILES: NC(=O)[C@@H]1CCCN1C(=O)C1(NC(=O)[C@@H]2CC(=O)N2)CCCCC1 [Compound 11b]
- performance deficits in the beamwalking task compared with saline vehicle [7]: attenuated

SMILES: C[C@H]1SC[C@@H](C(=O)N[C@H](Cc2c[nH]cn2)C(=O)N2CCC[C@H]2C(N)=O)NC1=O [CG3703]
- outcome following traumatic spinal cord injury [5]: improve outcome

SMILES: NC(=O)[C@H]1CSCN1C(=O)[C@H](Cc1cnc[nH]1)NC(=O)[C@@H]1CCCC(=O)N1 [MK-771]
- outcome following traumatic spinal cord injury [5]: ineffective

SMILES: CC1(C)CCN(C(=O)[C@H](Cc2cnc[nH]2)NC(=O)[C@@H]2CCC(=O)N2)[C@@H]1C(N)=O [RX-77368]
- outcome following traumatic spinal cord injury [5]: ineffective

SMILES: O=C1NC2(CC2)C(=O)N2CCC[C@@H]12 [Compound 1a, Cyclo [(1-Amino-1-Cyclopropane-Carboxylic Acid)-Pro]]
- mortality rate [6]: 28.6%

- latency to recovery of righting reflex compared with saline [9]: significantly attenuated
SMILES: NC(=O)[C@@H]1CCCN1C(=O)[C@H](Cc1cnc[nH]1)NC(=O)[C@@H]1CC(=O)N1 [YM-14673, N^α-[(S)-4-Oxo-Azetidine-2-Carbonyl]-L-Histidyl-L-Prolinamide]
- core temperature maintained [8]: 37-38 °C
- mean arterial blood pressure (MAP) compared with vehicle / other groups [10]: significantly higher MAP
- duration of action relative to TRH (longer acting) [11]: 8-36 times
- potency relative to TRH [11]: 10-100 times
- chronic neurological recovery following trauma [12]: improved chronic neurological recovery
